Patent US20220324835A1 (Nurix Therapeutics, Inc., priority 2018, published 2022)

Legend:
T-cell [1] = assay: CD25 cell surface staining on T-cells co-stimulated with anti-CD3 and anti-CD28 antibody (Biological Example 2); format: cell-based, human; settings: Homo sapiens, T-cell, fold change over baseline, primary human total T-cells, read-out: CD25 staining Anti-CD3/Anti-CD28 stimulation; for fold induction at 0.3 µM: 0.3 μM Cbl-b inhibitor; for fold induction at 1 µM: 1 μM Cbl-b inhibitor; for fold induction at 4 µM: 4 μM Cbl-b inhibitor
In short: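 No assay protocol given; T-cells stimulated with anti-CD3 alone or anti-CD3 plus anti-CD28, with or without Cbl-b inhibitor. Activation read as IL-2 secretion or CD25 surface staining, expressed as fold over baseline from uninhibited cells […].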

T-cell [2] = assay: IL-2 secretion from T-cells stimulated with anti-CD3 antibody alone (Biological Example 2); format: cell-based, human; settings: T-cell, fold change over baseline, primary human total T-cells, read-out: IL-2 secretion Anti-CD3 stimulation; for fold induction at 1 µM: 1 μM Cbl-b inhibitor; for fold induction at 8 µM: 8 μM Cbl-b inhibitor
Cbl-b = Cbl-b (Homo sapiens, UniProt Q13191); assay: Cbl-b inhibition assay (Cbl-b activity assay, FRET, Biological Example 1; 100 mM NaCl, 60 nM Src kinase); format: biochemical; settings: upper bound stated in text lists; read-out: IC50 values in the Cbl-b inhibition assay of Biological Example 1
Chain of Cbl-b (Q13191 36-427): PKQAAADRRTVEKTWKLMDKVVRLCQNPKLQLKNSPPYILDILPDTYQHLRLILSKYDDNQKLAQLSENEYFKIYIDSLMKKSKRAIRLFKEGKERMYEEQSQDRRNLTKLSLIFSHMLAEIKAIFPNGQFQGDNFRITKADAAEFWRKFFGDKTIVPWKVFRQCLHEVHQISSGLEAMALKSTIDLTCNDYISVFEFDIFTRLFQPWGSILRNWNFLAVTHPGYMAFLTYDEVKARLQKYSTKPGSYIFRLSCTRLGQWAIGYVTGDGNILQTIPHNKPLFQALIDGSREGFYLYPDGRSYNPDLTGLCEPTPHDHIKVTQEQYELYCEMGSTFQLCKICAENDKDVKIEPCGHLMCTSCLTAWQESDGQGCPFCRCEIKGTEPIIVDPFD
In short: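 Inhibition is read as loss of FRET signal. The signal arises when Src-phosphorylated, N-terminal biotinylated Avi-Cbl-b (captured by streptavidin-terbium) binds UbcH5B carrying covalently linked Bodipy-Fluorescein-tagged ubiquitin.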

With C[C@H](Sc1nncn1C)c1cccc(N2Cc3c(cccc3C(F)(F)F)C2=O)c1 [Compound 166a, (S)-2-(3-(1-((4-methyl-4H-1,2,4-triazol-3-yl)thio)ethyl)phenyl)-4-(trifluoromethyl)isoindolin-1-one] the fold induction at 0.3 µM (T-cell [1]) was < 1, the fold induction at 1 µM (T-cell [1]) was 1.01 to 1.3 and the fold induction at 4 µM (T-cell [1]) was 1.01 to 1.3. The fold induction at 1 µM (T-cell [2]) was < 0.05, the fold induction at 8 µM (T-cell [2]) was < 0.05 and the IC50 (Cbl-b) was ≤ 0.5 µM.
Work on C[C@H](Cc1nnc[nH]1)c1cccc(N2Cc3c(cccc3C(F)(F)F)C2=O)c1 [Compound 262, (R)-2-(3-(1-(4H-1,2,4-triazol-3-yl)propan-2-yl)phenyl)-4-(trifluoromethyl)isoindolin-1-one] yielded a fold induction at 0.3 µM (T-cell [1]) of 1.01 to 1.3, a fold induction at 1 µM (T-cell [1]) of 1.31 to 1.5 and a fold induction at 4 µM (T-cell [1]) of 1.31 to 1.5. For the same molecule, the fold induction at 1 µM (T-cell [2]) was < 0.05, the fold induction at 8 µM (T-cell [2]) was < 0.05 and the IC50 (Cbl-b) was ≤ 0.5 µM.
With Cc1ccc(C(=O)Nc2cccc([C@H](C)Cc3nnc[nH]3)c2)nc1C1CC1 [Compound 212, (R)-N-(3-(1-(4H-1,2,4-triazol-3-yl)propan-2-yl)phenyl)-6-cyclopropyl-5-methylpicolinamide] the fold induction at 0.3 µM (T-cell [1]) was 1.51 to 1.75, the fold induction at 1 µM (T-cell [1]) was 1.51 to 1.75 and the fold induction at 4 µM (T-cell [1]) was > 1.76. The fold induction at 1 µM (T-cell [2]) was < 0.05, the fold induction at 8 µM (T-cell [2]) was < 0.05 and the IC50 (Cbl-b) was ≤ 0.5 µM.
For Cc1ccc(C(=O)Nc2cccc(C(C)C(F)(F)c3nncn3C)c2)nc1C1CC1 (stereo not drawn) [Compound 286, 6-cyclopropyl-N-(3-(1,1-difluoro-1-(4-methyl-4H-1,2,4-triazol-3-yl)propan-2-yl)phenyl)-5-methylpicolinamide], the fold induction at 0.3 µM (T-cell [1]) was < 1, the fold induction at 1 µM (T-cell [1]) was < 1 and the fold induction at 4 µM (T-cell [1]) was 1.01 to 1.3. For the same molecule, the fold induction at 1 µM (T-cell [2]) was 0.051 to 0.1, the fold induction at 8 µM (T-cell [2]) was 0.101 to 0.15 and the IC50 (Cbl-b) was ≤ 0.5 µM.
C[C@H](Cc1nncn1C)c1cccc(NC(=O)c2ccnc(C(F)(F)F)n2)c1 [Compound 187, (R)-N-(3-(1-(4-methyl-4H-1,2,4-triazol-3-yl)propan-2-yl)phenyl)-2-(trifluoromethyl)pyrimidine-4-carboxamide] was tested, and the fold induction at 0.3 µM (T-cell [1]) was 1.51 to 1.75, the fold induction at 1 µM (T-cell [1]) was > 1.76 and the fold induction at 4 µM (T-cell [1]) was > 1.76. The fold induction at 1 µM (T-cell [2]) was > 0.201, the fold induction at 8 µM (T-cell [2]) was > 0.201 and the IC50 (Cbl-b) was ≤ 0.5 µM.
For C[C@H](Sc1nncn1C)c1cccc(NC(=O)c2ccc(Cl)c(C(F)(F)F)n2)c1 [Compound 51, (S)-5-chloro-N-(3-(1-((4-methyl-4H-1,2,4-triazol-3-yl)thio)ethyl)phenyl)-6-(trifluoromethyl)picolinamide], the fold induction at 0.3 µM (T-cell [1]) was 1.01 to 1.3, the fold induction at 1 µM (T-cell [1]) was 1.01 to 1.3 and the fold induction at 4 µM (T-cell [1]) was 1.01 to 1.3. For the same molecule, the fold induction at 1 µM (T-cell [2]) was < 0.05, the fold induction at 8 µM (T-cell [2]) was < 0.05 and the IC50 (Cbl-b) was ≤ 0.5 µM.
C[C@H](Cc1nncn1C)c1cccc(NC(=O)c2cc(C(=O)N3CC[C@](C)(O)C3)ccn2)c1 [Compound 222, 4-((S)-3-hydroxy-3-methylpyrrolidine-1-carbonyl)-N-(3-((R)-1-(4-methyl-4H-1,2,4-triazol-3-yl)propan-2-yl)phenyl)picolinamide] was tested, and the fold induction at 0.3 µM (T-cell [1]) was 1.51 to 1.75, the fold induction at 1 µM (T-cell [1]) was 1.31 to 1.5 and the fold induction at 4 µM (T-cell [1]) was 1.51 to 1.75. For the same molecule, the fold induction at 1 µM (T-cell [2]) was < 0.05, the fold induction at 8 µM (T-cell [2]) was < 0.05 and the IC50 (Cbl-b) was ≤ 1 µM.
Molecule Cc1ncc(C(=O)Nc2cccc([C@H](C)Sc3nncn3C)c2)nc1C1CC1 [Compound 70, (S)-6-cyclopropyl-5-methyl-N-(3-(1-((4-methyl-4H-1,2,4-triazol-3-yl)thio)ethyl)phenyl)pyrazine-2-carboxamide] has a fold induction at 0.3 µM (T-cell [1]) of 1.31 to 1.5, a fold induction at 1 µM (T-cell [1]) of 1.31 to 1.5 and a fold induction at 4 µM (T-cell [1]) of 1.51 to 1.75. The fold induction at 1 µM (T-cell [2]) was < 0.05, the fold induction at 8 µM (T-cell [2]) was 0.051 to 0.1 and the IC50 (Cbl-b) was ≤ 0.5 µM.
Cn1cnnc1CC(C)(F)c1cccc(N2Cc3c(cccc3C(F)(F)F)C2=O)c1 (racemic) [Compound 298, 2-(3-(2-fluoro-1-(4-methyl-4H-1,2,4-triazol-3-yl)propan-2-yl)phenyl)-4-(trifluoromethyl)isoindolin-1-one] was tested, and the fold induction at 0.3 µM (T-cell [1]) was < 1, the fold induction at 1 µM (T-cell [1]) was 1.01 to 1.3 and the fold induction at 4 µM (T-cell [1]) was 1.01 to 1.3. The fold induction at 1 µM (T-cell [2]) was 0.051 to 0.1, the fold induction at 8 µM (T-cell [2]) was 0.101 to 0.15 and the IC50 (Cbl-b) was ≤ 0.5 µM.
In the case of C[C@H](Sc1nncn1C)c1cccc(NC(=O)c2cc(C(=O)N3C[C@H](O)C[C@@H]3C)ccn2)c1 [Compound 151, 4-((2S,4R)-4-hydroxy-2-methylpyrrolidine-1-carbonyl)-N-(3-((S)-1-((4-methyl-4H-1,2,4-triazol-3-yl)thio)ethyl)phenyl)picolinamide], the fold induction at 0.3 µM (T-cell [1]) is reported as 1.01 to 1.3, the fold induction at 1 µM (T-cell [1]) is reported as 1.01 to 1.3 and the fold induction at 4 µM (T-cell [1]) is reported as 1.01 to 1.3. For the same molecule, the fold induction at 1 µM (T-cell [2]) was < 0.05, the fold induction at 8 µM (T-cell [2]) was < 0.05 and the IC50 (Cbl-b) was ≤ 1 µM.
In the case of C[C@H](Sc1nncn1C)c1ccnc(NC(=O)c2cc(C3CC3)cc(C(F)(F)F)n2)c1 [Compound 104, (S)-4-cyclopropyl-N-(4-(1-((4-methyl-4H-1,2,4-triazol-3-yl)thio)ethyl)pyridin-2-yl)-6-(trifluoromethyl)picolinamide], the fold induction at 0.3 µM (T-cell [1]) is reported as < 1, the fold induction at 1 µM (T-cell [1]) is reported as < 1 and the fold induction at 4 µM (T-cell [1]) is reported as 1.01 to 1.3. The fold induction at 1 µM (T-cell [2]) was < 0.05, the fold induction at 8 µM (T-cell [2]) was < 0.05 and the IC50 (Cbl-b) was ≤ 1 µM.
Work on C[C@H](Sc1nncn1C)c1cccc(NC(=O)c2cc(C(C)(C)O)cc(C(F)(F)F)n2)c1 [Compound 85, 4-(1-hydroxy-1-methyl-ethyl)-N-[3-[(1S)-1-[(4-methyl-1,2,4-triazol-3-yl)sulfanyl]ethyl]phenyl]-6-(trifluoromethyl)pyridine-2-carboxamide] yielded a fold induction at 0.3 µM (T-cell [1]) of 1.01 to 1.3, a fold induction at 1 µM (T-cell [1]) of 1.01 to 1.3 and a fold induction at 4 µM (T-cell [1]) of 1.01 to 1.3. For the same molecule, the fold induction at 1 µM (T-cell [2]) was < 0.05, the fold induction at 8 µM (T-cell [2]) was < 0.05 and the IC50 (Cbl-b) was ≤ 0.5 µM.
C[C@H](Sc1nncn1C)c1cccc(NC(=O)c2ccnc(C(F)(F)F)n2)c1 [Compound 75, N-[3-[(1S)-1-[(4-methyl-1,2,4-triazol-3-yl)sulfanyl]ethyl]phenyl]-2-(trifluoromethyl)pyrimidine-4-carboxamide] gave a fold induction at 0.3 µM (T-cell [1]) of 1.01 to 1.3, a fold induction at 1 µM (T-cell [1]) of 1.01 to 1.3 and a fold induction at 4 µM (T-cell [1]) of 1.01 to 1.3. For the same molecule, the fold induction at 1 µM (T-cell [2]) was < 0.05, the fold induction at 8 µM (T-cell [2]) was 0.051 to 0.1 and the IC50 (Cbl-b) was ≤ 0.5 µM.
For C[C@H](Sc1nncn1C)c1cccc(NC(=O)c2cc(C(F)(F)F)cc(C(F)(F)F)n2)c1 [Compound 64, (S)-N-(3-(1-((4-methyl-4H-1,2,4-triazol-3-yl)thio)ethyl)phenyl)-4,6-bis(trifluoromethyl)picolinamide], the fold induction at 0.3 µM (T-cell [1]) was < 1, the fold induction at 1 µM (T-cell [1]) was < 1 and the fold induction at 4 µM (T-cell [1]) was 1.01 to 1.3. The fold induction at 1 µM (T-cell [2]) was < 0.05, the fold induction at 8 µM (T-cell [2]) was < 0.05 and the IC50 (Cbl-b) was ≤ 1 µM.
With Cn1cnnc1[C@@H]1C[C@@H]1c1cccc(N2Cc3c(cccc3C(F)(F)F)C2=O)c1 [Compound 282, 2-(3-((1S,2R)-2-(4-methyl-4H-1,2,4-triazol-3-yl)cyclopropyl)phenyl)-4-(trifluoromethyl)isoindolin-1-one] the fold induction at 0.3 µM (T-cell [1]) was > 1.76, the fold induction at 1 µM (T-cell [1]) was > 1.76 and the fold induction at 4 µM (T-cell [1]) was > 1.76. For the same molecule, the fold induction at 1 µM (T-cell [2]) was < 0.05, the fold induction at 8 µM (T-cell [2]) was < 0.05 and the IC50 (Cbl-b) was ≤ 0.5 µM.
C[C@H](Sc1nncn1C)c1cccc(NC(=O)c2cc(C(C)(C)O)c(Cl)cn2)c1 [Compound 55, (S)-5-chloro-4-(2-hydroxypropan-2-yl)-N-(3-(1-((4-methyl-4H-1,2,4-triazol-3-yl)thio)ethyl)phenyl)picolinamide] gave a fold induction at 0.3 µM (T-cell [1]) of 1.01 to 1.3, a fold induction at 1 µM (T-cell [1]) of 1.01 to 1.3 and a fold induction at 4 µM (T-cell [1]) of 1.01 to 1.3. For the same molecule, the fold induction at 1 µM (T-cell [2]) was < 0.05, the fold induction at 8 µM (T-cell [2]) was < 0.05 and the IC50 (Cbl-b) was ≤ 1 µM.
Work on C[C@H](Cc1nncn1C)c1cccc(N2Cc3c(Br)cccc3C2=O)c1 [Compound 256, (R)-4-bromo-2-(3-(1-(4-methyl-4H-1,2,4-triazol-3-yl)propan-2-yl)phenyl)isoindolin-1-one] yielded a fold induction at 0.3 µM (T-cell [1]) of 1.01 to 1.3, a fold induction at 1 µM (T-cell [1]) of 1.31 to 1.5 and a fold induction at 4 µM (T-cell [1]) of 1.51 to 1.75. The fold induction at 1 µM (T-cell [2]) was > 0.201, the fold induction at 8 µM (T-cell [2]) was > 0.201 and the IC50 (Cbl-b) was ≤ 0.5 µM.
For C[C@H](Sc1nncn1C)c1cccc(NC(=O)c2cc(C(F)(F)F)cc(C3CC3)n2)c1 [Compound 69, (S)-6-cyclopropyl-N-(3-(1-((4-methyl-4H-1,2,4-triazol-3-yl)thio)ethyl)phenyl)-4-(trifluoromethyl)picolinamide], the fold induction at 0.3 µM (T-cell [1]) was 1.01 to 1.3, the fold induction at 1 µM (T-cell [1]) was 1.01 to 1.3 and the fold induction at 4 µM (T-cell [1]) was 1.31 to 1.5. For the same molecule, the fold induction at 1 µM (T-cell [2]) was < 0.05, the fold induction at 8 µM (T-cell [2]) was < 0.05 and the IC50 (Cbl-b) was ≤ 0.5 µM.
With C[C@H](Cc1nncn1C)c1cc(F)cc(N2Cc3c(cccc3C(F)(F)F)C2=O)c1 [Compound 281a, 2-[3-Fluoro-5-[(1R)-1-methyl-2-(4-methyl-1,2,4-triazol-3-yl)ethyl]phenyl]-4-(trifluoromethyl)isoindolin-1-one] the fold induction at 0.3 µM (T-cell [1]) was 1.01 to 1.3, the fold induction at 1 µM (T-cell [1]) was 1.01 to 1.3 and the fold induction at 4 µM (T-cell [1]) was 1.31 to 1.5. For the same molecule, the fold induction at 1 µM (T-cell [2]) was < 0.05, the fold induction at 8 µM (T-cell [2]) was 0.051 to 0.1 and the IC50 (Cbl-b) was ≤ 0.5 µM.
With C[C@H](Sc1nnc[nH]1)c1cccc(NC(=O)c2cc3ccccc3cn2)c1 [Compound 98, (S)-N-(3-(1-((4H-1,2,4-triazol-3-yl)thio)ethyl)phenyl)isoquinoline-3-carboxamide] the fold induction at 0.3 µM (T-cell [1]) was < 1, the fold induction at 1 µM (T-cell [1]) was < 1 and the fold induction at 4 µM (T-cell [1]) was < 1. The fold induction at 1 µM (T-cell [2]) was 0.051 to 0.1, the fold induction at 8 µM (T-cell [2]) was 0.051 to 0.1 and the IC50 (Cbl-b) was ≤ 1 µM.
